Target: T1, multidrug resistance associated protein 4 (MRP4) (Homo sapiens, UniProt O15439)
T1 sequence (O15439 1-1325): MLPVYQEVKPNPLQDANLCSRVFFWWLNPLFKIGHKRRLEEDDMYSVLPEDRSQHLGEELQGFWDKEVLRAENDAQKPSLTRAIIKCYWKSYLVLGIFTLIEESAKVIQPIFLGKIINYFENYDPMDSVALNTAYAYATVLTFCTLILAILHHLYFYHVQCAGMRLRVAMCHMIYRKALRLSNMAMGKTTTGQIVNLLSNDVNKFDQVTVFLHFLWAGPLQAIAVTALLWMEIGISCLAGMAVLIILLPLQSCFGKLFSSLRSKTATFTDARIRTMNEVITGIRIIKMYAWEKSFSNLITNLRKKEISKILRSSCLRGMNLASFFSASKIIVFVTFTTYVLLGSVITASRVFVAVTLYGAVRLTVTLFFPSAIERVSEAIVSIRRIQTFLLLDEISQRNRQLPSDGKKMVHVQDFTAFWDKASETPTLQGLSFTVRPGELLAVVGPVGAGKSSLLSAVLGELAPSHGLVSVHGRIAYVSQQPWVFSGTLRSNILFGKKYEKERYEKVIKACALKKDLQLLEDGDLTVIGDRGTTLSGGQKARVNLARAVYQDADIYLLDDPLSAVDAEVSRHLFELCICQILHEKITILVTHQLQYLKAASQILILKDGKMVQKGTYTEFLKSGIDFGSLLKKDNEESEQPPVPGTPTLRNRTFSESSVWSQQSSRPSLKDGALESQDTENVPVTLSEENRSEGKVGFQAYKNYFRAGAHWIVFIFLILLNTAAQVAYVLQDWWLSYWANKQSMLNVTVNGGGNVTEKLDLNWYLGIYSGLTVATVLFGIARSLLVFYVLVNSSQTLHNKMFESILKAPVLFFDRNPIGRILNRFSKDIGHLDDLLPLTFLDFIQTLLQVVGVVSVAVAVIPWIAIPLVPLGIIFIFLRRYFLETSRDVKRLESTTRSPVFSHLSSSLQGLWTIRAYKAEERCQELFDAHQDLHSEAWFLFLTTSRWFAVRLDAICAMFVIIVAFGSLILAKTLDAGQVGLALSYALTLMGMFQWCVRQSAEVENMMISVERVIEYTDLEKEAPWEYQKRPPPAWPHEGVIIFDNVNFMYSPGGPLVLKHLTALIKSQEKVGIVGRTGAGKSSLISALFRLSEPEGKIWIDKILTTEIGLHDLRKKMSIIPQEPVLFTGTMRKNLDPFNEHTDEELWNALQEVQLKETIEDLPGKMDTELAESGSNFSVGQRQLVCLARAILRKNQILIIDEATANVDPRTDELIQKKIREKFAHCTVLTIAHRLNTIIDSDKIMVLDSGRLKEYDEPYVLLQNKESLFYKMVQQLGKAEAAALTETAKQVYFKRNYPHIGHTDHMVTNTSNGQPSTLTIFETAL
Format: biochemical

- IC50: 125 µM
Compound: CC(=O)Nc1ccc(O)c(SC[C@H](N)C(=O)O)c1 [APAP-CYS, acetaminophen cysteine]
